Test results as given in PubChem BioAssay AID256 (DTP/NCI, 2004).
Values joined by “and” are separate entries in the source; they are usually repeats but may differ in a detail not shown here. Equal values may be shown once. Inconclusive results and toxic doses are left out.

Test system: CD2F1 mice, L1210 leukemia ip, survival T/C
Test: NCI In Vivo Anticancer Drug Screen. Data for tumor model L1210 Leukemia (intraperitoneal) in CD2F1 (CDF1) mice
Conditions: higher = longer survival
In short: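 Compound-dosed mice with transplantable tumor versus matched vehicle controls; endpoint ratio T/C reported.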

[1] = endpoint: mean survival time, dose: 200.0 mg/kg/injection, schedule: Q01DX001 (ip), vehicle: saline with Tween-80
[2] = endpoint: mean survival time, dose: 400.0 mg/kg/injection, schedule: Q01DX001 (ip), vehicle: saline with Tween-80
[3] = endpoint: mean survival time, dose: 100.0 mg/kg/injection, schedule: Q01DX001 (ip), vehicle: saline with Tween-80
[4] = endpoint: mean survival time, dose: 100.0 mg/kg/injection, schedule: Q04DX003 (ip), vehicle: saline
[5] = endpoint: mean survival time, dose: 200.0 mg/kg/injection, schedule: Q04DX003 (ip), vehicle: saline
[6] = endpoint: mean survival time, dose: 400.0 mg/kg/injection, schedule: Q04DX003 (ip), vehicle: saline
[7] = endpoint: mean survival time, dose: 100.0 mg/kg/injection, schedule: Q01DX001 (ip), vehicle: saline
[8] = endpoint: mean survival time, dose: 200.0 mg/kg/injection, schedule: Q01DX001 (ip), vehicle: saline
[9] = endpoint: mean survival time, dose: 100.0 mg/kg/injection, schedule: Q04DX003 (ip), vehicle: saline with Tween-80
[10] = endpoint: mean survival time, dose: 200.0 mg/kg/injection, schedule: Q04DX003 (ip), vehicle: saline with Tween-80
[11] = endpoint: mean survival time, dose: 400.0 mg/kg/injection, schedule: Q04DX003 (ip), vehicle: saline with Tween-80
[12] = endpoint: mean survival time, dose: 100.0 mg/kg/injection, schedule: Q01DX009 (ip), vehicle: saline with Tween-80
[13] = endpoint: mean survival time, dose: 200.0 mg/kg/injection, schedule: Q01DX009 (ip), vehicle: saline with Tween-80
[14] = endpoint: mean survival time, dose: 400.0 mg/kg/injection, schedule: Q01DX009 (ip), vehicle: saline with Tween-80
[15] = endpoint: mean survival time, dose: 75.0 mg/kg/injection, schedule: Q01DX001 (ip), vehicle: saline
[16] = endpoint: mean survival time, dose: 150.0 mg/kg/injection, schedule: Q01DX001 (ip), vehicle: saline
[17] = endpoint: mean survival time, dose: 100.0 mg/kg/injection, schedule: Q04DX002 (ip), vehicle: saline with Tween-80
[18] = endpoint: mean survival time, dose: 200.0 mg/kg/injection, schedule: Q04DX002 (ip), vehicle: saline with Tween-80
[19] = endpoint: mean survival time, dose: 400.0 mg/kg/injection, schedule: Q04DX002 (ip), vehicle: saline with Tween-80

Compound: COc1ccc(/C=C/C(=O)Oc2cc(O)cc(O)c2)cc1
- T/C (endpoint: mean survival time, dose: 12.5 mg/kg/injection, schedule: Q04DX002 (ip), vehicle: saline with Tween-80): 97 % of control
- T/C (endpoint: mean survival time, dose: 25.0 mg/kg/injection, schedule: Q04DX002 (ip), vehicle: saline with Tween-80): 93 % of control
- T/C (endpoint: mean survival time, dose: 50.0 mg/kg/injection, schedule: Q04DX002 (ip), vehicle: saline with Tween-80): 101 % of control
- T/C [1]: 94 % of control
- T/C [2]: 92 % of control

Compound: COC1=N/C=C/C=C\C/C=C/C1
- T/C (endpoint: median survival time, dose: 50.0 mg/kg/injection, schedule: Q04DX002 (ip), vehicle: saline with Tween-80): 111 % of control
- T/C (endpoint: median survival time, dose: 100.0 mg/kg/injection, schedule: Q04DX002 (ip), vehicle: saline with Tween-80): 88 % of control
- T/C (endpoint: median survival time, dose: 200.0 mg/kg/injection, schedule: Q04DX002 (ip), vehicle: saline with Tween-80): 100 % of control
- T/C (endpoint: median survival time, dose: 400.0 mg/kg/injection, schedule: Q04DX002 (ip), vehicle: saline with Tween-80): 88 % of control

Compound: Nc1ccc(-c2nc(N)[nH]c(=O)c2N)cc1
- T/C [3]: 96 % of control
- T/C [1]: 92 % of control
- T/C [2]: 88 % of control

Compound: O=C1CC2C3C=CC4C3CC2C14 (stereo not drawn)
- T/C (endpoint: mean survival time, dose: 75.0 mg/kg/injection, schedule: Q01DX001 (ip), vehicle: saline with Tween-80): 97 % of control
- T/C (endpoint: mean survival time, dose: 150.0 mg/kg/injection, schedule: Q01DX001 (ip), vehicle: saline with Tween-80): 101 % of control

Compound: CC12CCC(=O)C=C1CCC1C2CCC2(C)C1CCC2(O)C(=O)Cn1c(=O)cc[nH]c1=O (stereo not drawn)
- T/C (endpoint: mean survival time, dose: 12.5 mg/kg/injection, schedule: Q04DX003 (ip), vehicle: Klucel (hydroxypropylcellulose) (HPC)): 100 % of control
- T/C (endpoint: mean survival time, dose: 25.0 mg/kg/injection, schedule: Q04DX003 (ip), vehicle: Klucel (hydroxypropylcellulose) (HPC)): 93 % of control
- T/C (endpoint: mean survival time, dose: 50.0 mg/kg/injection, schedule: Q04DX003 (ip), vehicle: Klucel (hydroxypropylcellulose) (HPC)): 94 % of control
- T/C (endpoint: mean survival time, dose: 100.0 mg/kg/injection, schedule: Q04DX003 (ip), vehicle: Klucel (hydroxypropylcellulose) (HPC)): 93 % of control
- T/C (endpoint: mean survival time, dose: 200.0 mg/kg/injection, schedule: Q04DX003 (ip), vehicle: Klucel (hydroxypropylcellulose) (HPC)): 93 % of control

Compound: CC(C)(C)C1=CC(=O)C(C(C)(C)C)=C(N=[N+]=[N-])C1=O
- T/C [3]: 101 % of control
- T/C [1]: 97 % of control
- T/C [2]: 97 % of control

Compound: COc1cc(C=Nc2cc(Br)cc(Br)c2)ccc1N(CCCl)CCCl
- T/C (endpoint: mean survival time, dose: 200.0 mg/kg/injection, schedule: Q01DX001 (ip), vehicle: other): 150 % of control

Compound: COP(=O)(O)c1ccccc1 (tested in a mixture with another compound)
- T/C [4]: 103 % of control
- T/C [5]: 106 % of control
- T/C [6]: 95 % of control

Compound: O=C(O)C[Se]CC(=O)O
- T/C [7]: 109 % of control
- T/C [8]: 103 % of control

Compound: COc1cccc2c1C(=O)c1c(O)c3c(c(O)c1C2=O)C[C@@](O)(C(=O)CO)C[C@@H]3OC1CC(NC=O)C(O)C(C)O1 (stereo partly drawn)
- T/C (endpoint: mean survival time, dose: 6.25 mg/kg/injection, schedule: Q04DX003 (ip), vehicle: water): 93 % of control
- T/C (endpoint: mean survival time, dose: 12.5 mg/kg/injection, schedule: Q04DX003 (ip), vehicle: water): 93 % of control
- T/C (endpoint: mean survival time, dose: 25.0 mg/kg/injection, schedule: Q04DX003 (ip), vehicle: water): 102 % of control
- T/C (endpoint: mean survival time, dose: 50.0 mg/kg/injection, schedule: Q04DX003 (ip), vehicle: water): 112 % of control
- T/C (endpoint: mean survival time, dose: 100.0 mg/kg/injection, schedule: Q04DX003 (ip), vehicle: water): 114 % of control

Compound: Cc1c(C)c(O)c(Br)c(C)c1O (tested in a mixture with another compound)
- T/C (endpoint: mean survival time, dose: 25.0 mg/kg/injection, schedule: Q04DX003 (ip), vehicle: other): 100 % of control
- T/C (endpoint: mean survival time, dose: 50.0 mg/kg/injection, schedule: Q04DX003 (ip), vehicle: other): 94 % of control

Compound: CCCCCC(CC)OC(=O)Nc1cccc2ccccc12 (stereo not drawn)
- T/C [9]: 89 % of control
- T/C [10]: 101 % of control
- T/C [11]: 100 % of control

Compound: Cc1ccc(S(=O)(=O)OC(c2ccc(C(OS(=O)(=O)c3ccc(C)cc3)(C(F)(F)F)C(F)(F)F)cc2)(C(F)(F)F)C(F)(F)F)cc1
- T/C [3]: 96 % of control
- T/C [1]: 95 % of control
- T/C [2]: 90 % of control

Compound: O=C(CC(c1ccccc1)c1ccccc1)c1ccccc1
- T/C [12]: 98 % of control
- T/C [13]: 95 % of control
- T/C [14]: 98 % of control

Compound: C#CCN(C)CCO
- T/C (endpoint: mean survival time, dose: 100.0 mg/kg/injection, schedule: Q01DX009 (ip), vehicle: acetone): 103 % of control
- T/C (endpoint: mean survival time, dose: 200.0 mg/kg/injection, schedule: Q01DX009 (ip), vehicle: acetone): 97 % of control
- T/C (endpoint: mean survival time, dose: 400.0 mg/kg/injection, schedule: Q01DX009 (ip), vehicle: acetone): 100 % of control

Compound: CC1CC(C)(C)NC(c2ccccc2)O1 (stereo not drawn)
- T/C [9]: 94 % of control
- T/C [10]: 94 % of control
- T/C [11]: 102 % of control

Compound: CCCCC(O)C(=O)O (stereo not drawn)
- T/C [15]: 94 % of control
- T/C [16]: 96 % of control

Compound: O=[N+]([O-])CS(=O)(=O)N1CCOCC1
- T/C [7]: 103 % of control
- T/C [8]: 106 % of control
- T/C (endpoint: mean survival time, dose: 400.0 mg/kg/injection, schedule: Q01DX001 (ip), vehicle: saline): 110 % of control

Compound: CCCCCCCCCC(=O)NC(=S)Nc1ccc(C(=O)OCCCC)cc1
- T/C [3]: 88 % of control
- T/C [12]: 103 % of control
- T/C [17]: 94 % of control and 103 % of control
- T/C [9]: 90 % of control
- T/C [1]: 86 % of control
- T/C [13]: 92 % of control and 98 % of control
- T/C [18]: 90 % of control and 100 % of control
- T/C [10]: 93 % of control
- T/C [14]: 89 % of control and 92 % of control
- T/C [19]: 90 % of control and 91 % of control
- T/C [11]: 93 % of control

Compound: CN(CSc1ccc(Cl)cc1)c1ccccc1
- T/C (endpoint: mean survival time, dose: 50.0 mg/kg/injection, schedule: Q01DX009 (ip), vehicle: saline with Tween-80): 96 % of control
- T/C [12]: 96 % of control
- T/C [13]: 96 % of control

Compound: N=C1N(c2ccccc2)CCN1c1ccccc1
- T/C (endpoint: mean survival time, dose: 6.25 mg/kg/injection, schedule: Q04DX003 (ip), vehicle: saline with Tween-80): 94 % of control
- T/C (endpoint: mean survival time, dose: 12.5 mg/kg/injection, schedule: Q04DX003 (ip), vehicle: saline with Tween-80): 92 % of control

Compound: O=C(N/N=C/c1ccc2c(c1)CCC2)c1ccc([N+](=O)[O-])cc1
- T/C [9]: 95 % of control
- T/C [10]: 89 % of control
- T/C [11]: 98 % of control

Compound: O=[N+]([O-])c1cc(Cl)c(Cl)cc1Cl
- T/C [12]: 92 % of control
- T/C [9]: 106 % of control
- T/C [13]: 104 % of control
- T/C [10]: 101 % of control
- T/C [11]: 118 % of control

Compound: O=[N+]([O-])c1ccc(N/N=C/C(Br)(Br)Br)c([N+](=O)[O-])c1
- T/C (endpoint: mean survival time, dose: 25.0 mg/kg/injection, schedule: Q04DX003 (ip), vehicle: saline with Tween-80): 102 % of control
- T/C (endpoint: mean survival time, dose: 50.0 mg/kg/injection, schedule: Q04DX003 (ip), vehicle: saline with Tween-80): 100 % of control

Compound: CC1(C)OCC(C2OC(C)(C)OC2C2COC(C)(C)O2)O1 (stereo not drawn)
- T/C [17]: 100 % of control
- T/C [18]: 94 % of control
- T/C [19]: 101 % of control

Compound: CC(Br)C(Br)CO (stereo not drawn)
- T/C [4]: 104 % of control
- T/C [5]: 96 % of control
- T/C [6]: 106 % of control

Compound: CCOC(=O)C1C(=O)N(C)C(=O)N1c1ccccc1 (stereo not drawn)
- T/C (endpoint: mean survival time, dose: 12.5 mg/kg/injection, schedule: Q01DX009 (ip), vehicle: other): 98 % of control
- T/C (endpoint: mean survival time, dose: 25.0 mg/kg/injection, schedule: Q01DX009 (ip), vehicle: other): 90 % of control
- T/C (endpoint: mean survival time, dose: 50.0 mg/kg/injection, schedule: Q01DX009 (ip), vehicle: other): 87 % of control
- T/C (endpoint: mean survival time, dose: 100.0 mg/kg/injection, schedule: Q01DX009 (ip), vehicle: other): 93 % of control
- T/C (endpoint: mean survival time, dose: 200.0 mg/kg/injection, schedule: Q01DX009 (ip), vehicle: other): 87 % of control

Compound: COc1cccc(Cc2c[nH]c(=O)[nH]c2=O)c1
- T/C [9]: 98 % of control
- T/C [10]: 100 % of control
- T/C [11]: 92 % of control

Compound: Nc1cccc2ccc(S(=O)(=O)O)cc12
- T/C [12]: 101 % of control
- T/C [13]: 106 % of control

Compound: C=C1C(=O)O[C@H]2C[C@@]3(C)[C@H](O)CCC(=C)[C@@H]3[C@@H](OC(C)=O)[C@H]12
- T/C [15]: 102 % of control
- T/C [16]: 106 % of control
- T/C (endpoint: mean survival time, dose: 300.0 mg/kg/injection, schedule: Q01DX001 (ip), vehicle: saline): 103 % of control

Compound: CCC(=O)C(c1ccccc1)(c1ccccc1)c1ccccc1
- T/C (endpoint: mean survival time, dose: 25.0 mg/kg/injection, schedule: Q04DX002 (ip), vehicle: other): 98 % of control
- T/C (endpoint: mean survival time, dose: 50.0 mg/kg/injection, schedule: Q04DX002 (ip), vehicle: other): 95 % of control
- T/C (endpoint: mean survival time, dose: 100.0 mg/kg/injection, schedule: Q04DX002 (ip), vehicle: other): 95 % of control
